Measured values reported in patent US20050203063A1, “Proteasome pathway inhibitors and related methods” (priority 2003, published 2005).

system: cyclin-luciferase (cyc-luc) turnover, APC/C activation; assay: cyc-luc turnover in interphase Xenopus extracts induced to enter mitosis by non-degradable cyclin B; format: biochemical; conditions: 200 μM compound; added to interphase extracts then induced to enter mitosis; average of three measurements
Protocol: FIG. 1. Functional classification of inhibitors. Compounds that scored in the initial screen were reacquired as dry powders and retested in Xenopus extracts in 4 assays at 200 μM concentration (32) as described (6). […] (A) Compounds and cyclin-luciferase were added to interphase extracts, which were then induced to enter mitosis by addition of non-degradable cyclin B. Percent inhibition of cyc-luc turnover by each compound is coded according to the grayscale shown at the bottom of the figure; specific values are available in Table 1. (B) Extracts were pre-treated with non-degradable cyclin B to allow entry into mitosis prior to addition of test compound and reporter protein. (C) Interphase extracts were treated by addition of recombinant Cdh1 to activate cyc-luc turnover. (D) Interphase extracts were treated with recombinant axin to induce turnover of β-catenin-luciferase.
The “Cmpd” column corresponds to the numbers used in FIG. 1; “Class” refers to the class of inhibitor described in FIG. 1 and the text. Columns A-D show percent inhibition in the four assays described in FIG. 1. (A) Interphase extracts (B) Mitotic extracts (C) Interphase extracts stimulated with Cdh1 (D) Degradation of a β-catenin reporter protein in interphase extracts stimulated with recombinant axin. […] “ID#” refers to the identification number of the inhibitor obtained from the NCI (prefaced by NSC) or Chembridge (prefaced by C).
Extracts were rapidly thawed and diluted to a final concentration of 75% in extract buffer (XB) just prior to assay (XB; 100 mM KCl, 0.1 mM CaCl2, 1 mM MgCl2, 10 mM potassium HEPES, pH 7.7, 50 mM sucrose). Extracts were kept on ice and supplemented with 1 mg/ml bovine ubiquitin (Sigma) unless otherwise stated. Cyc-luc expressed in reticulocyte lysate was diluted 1/200 for most assays. High-throughput screening utilized the bacterially expressed and purified cyclin-luc fusion protein, which was added to extracts at a final concentration of 0.1 μg/ml. To induce entrance into mitosis, cyclin BΔ90 protein was added to a final concentration of 10 μg/ml. For the dose response analysis, inhibitors were purchased from Calbiochem (San Diego, Calif.) and dissolved in DMSO as 10 mM stocks. Cyclin-luciferase and cyclin BΔ90 were mixed with interphase extract and placed on ice. Inhibitors were then added to extracts to yield a final DMSO concentration of 1%. 10 μl aliquots of extract were distributed into 384-well white Cliniplates (Labsystems), and cell cycle progression was initiated by warming the samples to room temperature. After 60 minutes, 30 μl of luciferin reagent (20 mM tricine pH 7.8, 470 μM D-Luciferin [Molecular Probes]), 270 μM Coenzyme A, 0.1 mM EDTA, 33 mM DTT, and 530 μM ATP) was added using a multidrop dispenser (Labsystems). Luminescence was measured on an Analyst plate reader (LJL Biosystems). The values for 3 replicates were averaged. For the dose response analysis, percent inhibition was calculated as 100*(T−M)/(I−M) where T equals the test value for the inhibitor, M equals the value in a mitotic extract lacking inhibitor, and I equals the value in an interphase extract. For certain experiments, methylated ubiquitin was added to interphase extracts at a concentration of 1 mg/ml in the presence or absence of added unmodified ubiquitin (1 mg/ml) used as competitor. Cyclin-luciferase and cyclin BΔ90 were then added. After 60 minutes, the reactions were stopped and analyzed as described above.
Dry compounds were redissolved at 20 mM concentration in DMSO, or a 50:50 water:DMSO mixture in certain cases. These compounds were then diluted ten-fold in XB and mixed thoroughly. For the assay in FIG. 1A, chilled interphase extract was mixed with cyclin BΔ90 (10 μg/ml) and cyc-luc (0.1 μg/ml) in bulk and then 27 μl of extract was pipetted to each well of a chilled 384-well plate.

First: CC(=O)Nc1ccc(SSc2ccc(NC(C)=O)c3cccnc23)c2ncccc12 [Compound 23]
Second: O=C(Nc1ccc(/C=C/c2ccc(NC(=O)c3cc(S(=O)(=O)O)c4cccnc4c3O)cc2S(=O)(=O)O)c(S(=O)(=O)O)c1)c1cc(S(=O)(=O)O)c2cccnc2c1O [Compound 92]
The “percent inhibition of cyc-luc turnover, (A) Interphase extracts” value of the first is higher: 100% for the first, 60% for the second.

In the case of `O=S(=O)(O)c1ccc2cc3c(cc2c1)NN(c1ccc(/C=C/c2ccc(N4Nc5cc6ccc(S(=O)(=O)O)cc6cc5N4)cc2S(=O)(=O)O)c(S(=O)(=O)O)c1)N3` [Compound 59], the “percent inhibition of cyc-luc turnover, (A) Interphase extracts” value is reported as 97%.
